From article PMC2905291, “A phase I study of the safety and pharmacokinetics of the histone deacetylase inhibitor belinostat administered in combination with carboplatin and/or paclitaxel in patients with solid tumours” (British Journal of Cancer, 2010)
Where two headings read alike, the source gives them in different places.

Experiments:
[1] = Belinostat plasma pharmacokinetics in patients (HPLC-MS/MS, non-compartmental); format: in vivo, human; settings: for Cl / Vss / AUC / AUC(0-inf) / Cmax / half-life: mean±s.d.; for AUC / AUC(0-inf) / Cmax / half-life: human, plasma, iv
Method: Belinostat and paclitaxel levels were determined in lithium-heparinised plasma using validated solid-phase extraction high performance liquid chromatograpgy (HPLC)-tandem mass spectrometric detection (MS/MS) methods (Covance, Indianapolis, IN, USA). […] Belinostat plasma concentrations were determined at Covance using a validated method involving solid-phase extraction, separation with acetic acid acetonitril gradient on reversed phase C18 silica and MS/MS using penta-deuterated belinostat as the internal standard. […] For all analytes the AUC was estimated from the start of infusion by the logarithmic-linear trapezoidal rule and extrapolated to infinity using the estimated value of the slope of the terminal logarithmic-linear disposition phase.

[2] = test system: advanced solid malignancy; assay: Anti-tumour activity by CT/MRI (RECIST) in phase I patients; format: in vivo, human; settings: for duration of response: confirmed PR
[3] = set-up: method as in Qian et al, 2006; settings: combined with paclitaxel, docetaxel and carboplatin, in vitro and in vivo; ref Qian et al, 2006; cited from earlier work
[4] = test system: patients with advanced solid malignancy; settings: in vivo
Method: Belinostat was administered in escalating doses of 600, 800 and 1000 mg m^−2 per day as a 30-min i.v. infusion on days 1–5 q21. Carboplatin was administered as a 30-min i.v. infusion at area under the curve (AUC) 5 on day 3 q21 days, whereas paclitaxel was administered at 175 mg m^−2 i.v. over 3 h. Cytotoxics were given 2–3 h after the administration of belinostat–paclitaxel followed by carboplatin. […] Carboplatin was dosed in accordance with the Calvert formula using ethylenediaminetetraacetic acid clearance to estimate glomerular filtration rate (GFR) ([Calvert et al, 1989]) at the European Union sites and the Jelliffe formula at sites in the United States ([Jelliffe, 1973]). Prophylactic anti-emetic and hypersensivity prophylaxis for paclitaxel were administered as per local standards.
A DLT was defined as an absolute neutrophil count <0.5 × 10^9 l^−1 lasting for ⩾7 days, or absolute neutrophil count <0.5 × 10^9 l^−1 with sepsis; or platelet count <25 × 10^9 l^−1. In addition, any other drug-related non-haematological grade III or IV toxicity with the exceptions of alopecia, nausea and vomiting, diarrhoea, rash, arthralgias and myalgias was categorized as DLT.
Dose escalation was planned in a classical 3+3 design in up to five cohorts. In cohort 1A, belinostat was to be administered at 600 mg m^−2 together with carboplatin AUC 5; in cohort 1B, […] with paclitaxel 175 mg m^−2. In cohort 2, belinostat at 600 mg m^−2 was to be administered with both carboplatin AUC 5 and paclitaxel at 175 mg m^−2. In cohorts 3 and 4, belinostat was to be administered at 800 and 1000 mg m^−2, respectively, together with the same doses of BelCaP. Treatment cycles were to be repeated until disease progression, evidence of significant treatment-related toxicities, or withdrawal of consent. Up to two dose reductions were to be allowed of all three drugs.
Pre-treatment evaluation included history, physical examination, laboratory assessments, chest x-ray, electrocardiogram (ECG), urinalysis and tumour evaluation with computed tomography (CT) or magnetic resonance imaging (MRI). Laboratory assessments (complete blood count, clotting screen, urea, creatinine, electrolytes, liver function tests, uric acid, glucose and cholesterol) were performed pre-treatment and weekly thereafter as well as on day 4 of cycles 1 and 2 only. Electrocardiograms were performed before and within 1 h after treatment with belinostat in cycle 1 and on day 1 only of all subsequent cycles. Central ECG reading was carried out using a digital analysis method.
Toxicities were graded according to the National Cancer Institute Common Terminology Criteria for Adverse Events version 3.0. Efficacy was assessed by CT or MRI performed every two cycles using Response Evaluation Criteria in Solid Tumors (RECIST) ([Therasse et al, 2000]).

[5] = test system: class I and II recombinant HDAC isoforms; set-up: method as in Khan et al, 2008; settings: ref Khan et al, 2008; cited from earlier work
[6] = test system: solid and haematological tumours; settings: cited from earlier work; for dose-limiting toxicities: 2008
[7] = belinostat 600 mg m^−2 i.v., days 1 and 3, 12 patients
[8] = belinostat 800 mg m^−2 i.v., days 1 and 3, 4 patients
[9] = belinostat 1000 mg m^−2 i.v., day 1, 7 patients
[10] = belinostat 1000 mg m^−2 i.v., day 3, 7 patients
[11] = 600 mg, belinostat 600 mg m^−2 i.v., days 1 and 3, 12 patients
[12] = 800 mg, belinostat 800 mg m^−2 i.v., days 1 and 3, 4 patients
[13] = 1000 mg, belinostat 1000 mg m^−2 i.v., day 1, 7 patients
[14] = 1000 mg, belinostat 1000 mg m^−2 i.v., day 3, 7 patients
[15] = eight patients with best response s.d.

Q: With `O=C(/C=C/c1cccc(S(=O)(=O)Nc2ccccc2)c1)NO` [belinostat] as the molecule, how does the “accumulation with repeat dosing” value ([1]; 1000 mg m^−2 per day, day 3 pre-infusion) read?
A: The value was “no accumulation”.

Q: What about the Cl [1, 7] of the same molecule?
A: The Cl was 69.7±15.2 l h^−1 m^−2.

Q: What about the Vss [1, 7] of the same molecule?
A: The Vss was 34.9±6.4 l m^−2.

Q: And the Cl [1, 8]?
A: The Cl was 73.7±14.1 l h^−1 m^−2.

Q: And the Vss [1, 8]?
A: The Vss was 38.1±9.7 l m^−2.

Q: What about the Cl [1, 9] of the same molecule?
A: Its Cl is 41.1±22.2 l h^−1 m^−2.

Q: And the Vss [1, 9]?
A: The Vss was 22.6±9.7 l m^−2.

Q: And the Cl [1, 10]?
A: The Cl was 45.1±17.3 l h^−1 m^−2.

Q: What about the Vss [1, 10] of the same molecule?
A: The Vss was 35.8±17.3 l m^−2.

Q: And the “patients with pre-infusion plasma value on day 3 below the limit of quantitation” value ([1]; belinostat 1000 mg m^−2 per day, limit of quantitation 5 ng ml^−1)?
A: Its value is “five of seven”.

Q: What about the “effect of concurrent administration on pharmacokinetics” value ([1]; belinostat with carboplatin and/or paclitaxel on day 3) of the same molecule?
A: The value was “unaltered”.

Q: And the “dose proportionality of pharmacokinetics” value ([1]; dose range 600–1000 mg m^−2)?
A: The value was “dose proportional”.

Q: What about the AUC [1, 11] of the same molecule?
A: Its AUC is 28.4 ± 7.1 µM·h.

Q: And the AUC(0-inf) [1, 11]?
A: Its AUC(0-inf) is 28.4 ± 7.1 µM·h.

Q: And the Cmax [1, 11]?
A: The Cmax was 58.5 ± 13.8 µM.

Q: What about the half-life [1, 11] of the same molecule?
A: Its half-life is 1.7 ± 0.9 h.

Q: What about the AUC [1, 12] of the same molecule?
A: The AUC was 35.5 ± 8.7 µM·h.

Q: And the AUC(0-inf) [1, 12]?
A: Its AUC(0-inf) is 35.6 ± 8.7 µM·h.

Q: And the Cmax [1, 12]?
A: Its Cmax is 70.8 ± 18.9 µM.

Q: What about the half-life [1, 12] of the same molecule?
A: The half-life was 1.7 ± 0.2 h.

Q: And the AUC [1, 13]?
A: The AUC was 102 ± 58.2 µM·h.

Q: What about the AUC(0-inf) [1, 13] of the same molecule?
A: The AUC(0-inf) was 102 ± 58.3 µM·h.

Q: And the Cmax [1, 13]?
A: The Cmax was 128 ± 43.5 µM.

Q: And the half-life [1, 13]?
A: The half-life was 1 ± 0.1 h.

Q: What about the AUC [1, 14] of the same molecule?
A: The AUC was 88.8 ± 63.9 µM·h.

Q: And the AUC(0-inf) [1, 14]?
A: Its AUC(0-inf) is 88.8 ± 63.9 µM·h.

Q: What about the Cmax [1, 14] of the same molecule?
A: Its Cmax is 135 ± 54.9 µM.

Q: And the half-life [1, 14]?
A: Its half-life is 2.7 ± 0.4 h.

Q: What about the “patients with best response of s.d.” value ([2]; 14 patients evaluable) of the same molecule?
A: The value was “eight”.

Q: And the “patients with stable disease lasting ⩾6 months” value ([2]; belinostat with carboplatin and/or paclitaxel)?
A: The value was “six and seven”.

Q: What about the “partial responses (number of patients)” value ([2]; belinostat with carboplatin and/or paclitaxel, 14 patients evaluable, RECIST) of the same molecule?
A: The value was “two”.

Q: What about the duration of response ([2]; patient with metastatic pancreatic cancer treated with belinostat and carboplatin) of the same molecule?
A: Its duration of response is 7 months.

Q: What about the duration of response ([2]; patient with metastatic rectal cancer treated with belinostat, carboplatin and paclitaxel) of the same molecule?
A: The duration of response was 9 months.

Q: What about the “duration of s.d., median” value [2, 15] of the same molecule?
A: The value was 6.6 months.

Q: And the “duration of s.d., range” value [2, 15]?
A: The value was 1–29 months.

Q: And the CA-125 response ([2]; one patient, mixed mullerian tumour of ovarian origin, radiologically s.d. by RECIST)?
A: Its CA-125 response is “complete CA-125 response”.

Q: What about the “duration of s.d., range” value ([2]; seven patients with s.d. lasting ⩾6 months) of the same molecule?
A: Its value is 6–29 months.

Q: And the “response in patient with metastatic transitional cell cancer of the bladder” value ([2]; treated with belinostat and paclitaxel, otherwise rated s.d.)?
A: The value was “resolution of a bony metastatic deposit”.

Q: And the combination effect [3]?
A: Its combination effect is “additive to synergistic”.

Q: What about the “Alopecia grade 3, treatment related AE” value ([4]; human) of the same molecule?
A: Its value is 0.

Q: And the “Arthralgia grade 3, treatment related AE” value ([4]; human)?
A: The value was 0.

Q: What about the “Flushing grade 3, treatment related AE” value ([4]; human) of the same molecule?
A: Its value is 0.

Q: And the “Nausea grade 3, treatment related AE” value ([4]; human)?
A: The value was 0.

Q: And the “Neutropenia grade 4, treatment related AE” value ([4]; human)?
A: Its value is 13%.

Q: What about the “maximal administered dose of belinostat” value ([4]; human) of the same molecule?
A: The value was 1000 mg m^−2 per day.

Q: What about the “recommended dose of belinostat” value ([4]; human, iv) of the same molecule?
A: Its value is 1000 mg m^−2 per day.

Q: What about the cardiac toxicity [4] of the same molecule?
A: Its cardiac toxicity is “no cardiac toxicity”.

Q: What about the “grade IV non-haematological adverse events” value [4] of the same molecule?
A: Its value is “no grade IV non-haematological adverse events”.

Q: And the “activity against HDAC isoforms” value [5]?
A: Its value is “nanomolar activity”.

Q: And the myelosuppression ([6]; single agent phase I studies, ref Steele et al, 2008, Gimsing et al)?
A: Its myelosuppression is “no significant myelosuppression”.

Q: What about the “maximum tolerated dose (MTD)” value ([6]; single agent, i.v., q21 days, ref Steele et al, 2008, Gimsing et al) of the same molecule?
A: Its value is 1000 mg m^−2 per day.

Q: And the dose-limiting toxicities ([6]; single agent, solid tumour study, ref Steele et al)?
A: The dose-limiting toxicities was “fatigue, diarrhoea and atrial fibrillation”.

Q: What about the dose-limiting toxicities ([6]; single agent, study of haematological tumours, ref Gimsing et al) of the same molecule?
A: Its dose-limiting toxicities is “none were seen”.
